Reference: US11426421B2, “Composition for preventing or improving inflammation including extract of seed of new soybean cultivar SCEL-1” (KOREA INSTITUTE OF SCIENCE AND TECHNOLOGY, priority 2018, dated 2022)

System: oxazolone-induced atopic dermatitis in mice
Assay: Oxazolone-induced atopic dermatitis in mice, samples applied to the ear, ear thickness (H&E histology)
Type: in vivo, mouse
Settings: positive control group (Dexa), concentration not given; FIG. 2
Experimental: In a mouse, oxazolone was administered thereto to induce an oxazolone-induced atopic dermatitis. Then, the effect of the extract of the selected cultivar on atopic dermatitis was examined.
In detail, mice (male, 20 g, 8-week-old, Central Lab. Animal Inc.) was divided into a group of 6, and each group was named as a control group, a induction group (Vehicle), a positive control group (Dexa), a soybean SCEL-1 0.1% (w/v)-treated group, a soybean SCEL-1 0.3% (w/v)-treated group, a SCEL-1 1.0% (w/v)-treated group, and a general black soybean (available from Nonghyup of Gangneungkyo-1-dong) 1.0% (w/v)-treated group. Each sample was prepared in the same manner as in Section (1).
To induce atopic dermatitis in mice, 40 μl of 1% oxazolone per ear was applied once a day. After one week and starting from the eighth day, 40 μl of 1% oxazolone per ear was applied on alternate days for three weeks. In addition, starting from the eighth day, in addition to the oxazolone application, samples were also applied twice a day. Immediately after the experiment, a tissue of the ear was immobilized in 10% paraformaldehyde for 24 hours or more, and then, immersed in paraffin to form a block. The block was then fixed, and cut to a thickness of 10 μm by using a microtome that enables cutting to a constant thickness. […]

With `C[C@@H]1C[C@H]2[C@@H]3CCC4=CC(=O)C=C[C@]4(C)[C@@]3(F)[C@@H](O)C[C@]2(C)[C@@]1(O)C(=O)CO` [dexamethanosone] the “ear thickness of the mouse having oxazolone-induced atopic dermatitis” value was “reduced to a thickness near the normal level”.
